Assays:
healthy adults = assay: Phase I single-dose safety and tolerability study of TPIP in healthy adults; assay type: in vivo, human
Procedure: Specifically, in a Phase I safety, tolerability, and PK study, healthy adults were administered single doses of 112.5 μg, 225 μg, 450 μg, and 675 μg of a compound of Formula (II).

[1] = tested on: subjects with pulmonary hypertension, including pulmonary arterial hypertension; assay: Phase 2 safety and efficacy study in subjects with pulmonary hypertension; assay type: in vivo, human
Procedure: In a Phase 2 safety and efficacy study, the following doses of were investigated in subjects with pulmonary hypertension, including pulmonary arterial hypertension: 80 μg, 160 μg, 240 μg, 320 μg, 400 μg, 480 μg, and 640 μg. In this study, patients were administered a starting dose of 80 μg of the TPIP and the dose was titrated up to 640 μg according to FIG. 2.

[2] = Nonclinical studies of TP: conversion of prodrug to treprostinil; assay type: in vitro ADME; details: nonclinical (in vitro and in vivo)
From the text: (§1) Treprostinil palmitil (TP) is a hexadecyl ester prodrug of treprostinil (TRE). In the lung, TP is hydrolyzed by esterases to TRE and hexadecanol.

[3] = Nonclinical studies of TP: delivery / PK and PD profile; assay type: in vivo
From the text: as §1

rodent model of PAH = assay: Rodent model of PAH; assay type: in vivo; details: inhibits associated adverse pathology and pathophysiology
From the text: as §1

[4] = Preclinical safety / toxicology of TP; assay type: in vivo; details: nonclinical
From the text: as §1

CCCCCCCCCCCCCCCCOC(=O)COc1cccc2c1C[C@H]1C[C@@H](O)[C@H](CC[C@@H](O)CCCCC)[C@H]1C2 [treprostinil palmitil]
serious or severe TEAEs (printed TEALs) (healthy adults; single doses 112.5, 225, 450, 675 μg): no serious or severe TEALs were observed
safety and tolerability (healthy adults; single doses 112.5, 225, 450, 675 μg / highest doses tested): safe and well-tolerated
tolerability ([1]; 80 μg to 640 μg, titrated): well tolerated
tolerability of 640 μg ([1]; 640 μg, highest dose administered in a clinical trial): well tolerated
efficacy at higher doses ([1]; higher doses): promising efficacy
conversion to treprostinil [2]: converted from the prodrug to the active drug, treprostinil
delivery of treprostinil [3]: sustained delivery of treprostinil to the lungs and systemic circulation
efficacy in PAH model (rodent model of PAH): efficacious in a rodent model of PAH
preclinical safety [4]: did not demonstrate concerning preclinical safety or toxicological findings

Reference: US20260325546A1, “METHODS OF TREATMENT USING DRY POWDER COMPOSITIONS OF TREPROSTINIL PRODRUGS” (Insmed Incorporated, priority 2024, published 2026)
